# Laboratory results as given in patent US9682995B2, “Amino-substituted isothiazoles” (BAYER PHARMA AKTIENGESELLSCHAFT, priority 2013, dated 2017).
# Assays:
# CDK2/CycE = CDK2/CycE (Homo sapiens (Human), UniProt P24941); experiment: CDK2/CycE kinase assay (TR-FRET); assay type: biochemical; details: 10 μM ATP; read-out: CDK2 avg (IC50 [mol/l])
# Description: CDK2/CycE-inhibitory activity of compounds of the present invention was quantified employing the CDK2/CycE TR-FRET assay as described in the following paragraphs.
# Recombinant fusion proteins of GST and human CDK2 and of GST and human CycE, expressed in insect cells (Sf9) and purified by Glutathion-Sepharose affinity chromatography, were purchased from ProQinase GmbH (Freiburg, Germany). As substrate for the kinase reaction biotinylated peptide biotin-Ttds-YISPLKSPYKISEG (C-terminus in amid form) was used which can be purchased e.g. form the company JERINI peptide technologies (Berlin, Germany).
# For the assay 50 nl of a 100 fold concentrated solution of the test compound in DMSO was pipetted into a black low volume 384 well microtiter plate (Greiner Bio-One, Frickenhausen, Germany), 2 μl of a solution of CDK2/CycE in aqueous assay buffer [50 mM Tris/HCl pH 8.0, 10 mM MgCl2, 1.0 mM dithiothreitol, 0.1 mM sodium ortho-vanadate, 0.01% (v/v) Nonidet-P40 (Sigma)] were added and the mixture was incubated for 15 min at 22° C. to allow pre-binding of the test compounds to the enzyme before the start of the kinase reaction. Then the kinase reaction was started by the addition of 3 μl of a solution of adenosine-tri-phosphate (ATP, 16.7 μM=>final conc. in the 5 μl assay volume is 10 μM) and substrate (1.25 μM=>final conc. in the 5 μl assay volume is 0.75 μM) in assay buffer and the resulting mixture was incubated for a reaction time of 25 min at 22° C. The concentration of CDK2/CycE was adjusted depending of the activity of the enzyme lot and was chosen appropriate to have the assay in the linear range, typical concentrations were in the range of 130 ng/ml. The reaction was stopped by the addition of 5 μl of a solution of TR-FRET detection reagents (0.2 μM streptavidine-XL665 [Cisbio Bioassays, Codolet, France] and 1 nM anti-RB(pSer807/pSer811)-antibody from BD Pharmingen [#558389] and 1.2 nM LANCE EU-W1024 labeled anti-mouse IgG antibody [Perkin-Elmer, product no. AD0077, as an alternative a Terbium-cryptate-labeled anti-mouse IgG antibody from Cisbio Bioassays can be used]) in an aqueous EDTA-solution (100 mM EDTA, 0.2% (w/v) bovine serum albumin in 100 mM HEPES/NaOH pH 7.0).
# The resulting mixture was incubated 1 h at 22° C. to allow the formation of complex between the phosphorylated biotinylated peptide and the detection reagents. Subsequently the amount of phosphorylated substrate was evaluated by measurement of the resonance energy transfer from the Eu-chelate to the streptavidine-XL. Therefore, the fluorescence emissions at 620 nm and 665 nm after excitation at 350 nm was measured in a TR-FRET reader, e.g. a Rubystar (BMG Labtechnologies, Offenburg, Germany) or a Viewlux (Perkin-Elmer). The ratio of the emissions at 665 nm and at […] was taken as the measure for the amount of phosphorylated substrate. The data were normalised (enzyme reaction without inhibitor=0% inhibition, all other assay components but no enzyme=100% inhibition).
# [1] = test system: spindle assembly checkpoint; experiment: SAC-Formation - Paclitaxel-Induced Assay; assay type: cell-based; details: Homo sapiens; HeLa cells, paclitaxel 0.05 μM, 24 h, phosphorylated histone H3 on serine 10
# Description: The spindle assembly checkpoint assures the proper segregation of chromosomes during mitosis. Upon entry into mitosis, chromosomes begin to condensate which is accompanied by the phosphorylation of histone H3 on serine 10. Dephosphorylation of histone H3 on serine 10 begins in anaphase and ends at early telophase. Accordingly, phosphorylation of histone H3 on serine 10 can be utilized as a marker of cells in mitosis. Nocodazole is a microtubule destabilizing substance. Paclitaxel is a microtubule stabilizing compound. Thus, nocodazole as well as paclitaxel interfere with microtubule dynamics and mobilize the spindle assembly checkpoint. […] The mitotic breakthrough can be detected by the decrease of cells with phosphorylation of histone H3 on serine 10. This decline is used as a marker to determine the capability of compounds of the present invention to induce a mitotic breakthrough. The typical morphological alteration of nuclei with a prematurely completed mitosis after SAC-inhibition can be monitored via image analysis routines supporting those findings.
# The nocodazole and paclitaxel variations were used to focus on compounds that are capable of inhibiting a SAC induced by both microtubule destabilization as well as microtubule stabilization. When SAC inducing agents and compounds are given simultaneously, inhibitors that effectively block the SAC during formation or abrogation are identified. When cells are incubated with a SAC inducing agent and the SAC interfering compound is given after a defined time, inhibitors are identified that effectively block SAC abrogation.
# Cultivated cells of the human cervical tumor cell line HeLa (ATCC CCL-2) were plated at a density of 1000 cells/well in a 1536-well microtiter plate in 2 μl PAA Ham's F12 Medium supplemented with 1% (v/v) glutamine, 1% (v/v) penicillin, 1% (v/v) streptomycin and 10% (v/v) fetal calf serum. After incubation overnight at 37° C., 10 μl/well paclitaxel at a final concentration of 0.05 μM were added to cells. Test compounds solubilized in dimethyl sulfoxide (DMSO) were added at various concentrations (0 μM, as well as in the range of 0.005 μM-20 μM; the final concentration of the solvent DMSO was 0.5% (v/v)). Cells were incubated for 24 h at 37° C. in the presence of test compounds in combination with paclitaxel. Thereafter, cells were fixed in 4% (v/v) paraformaldehyde in phosphate buffered saline (PBS) at 4° C. overnight then permeabilized in 0.1% (v/v) Triton X™ 100 in PBS at room temperature for 20 min and blocked in 0.5% (v/v) bovine serum albumin (BSA) in PBS at room temperature for 15 min. After washing with PBS, 5 μl/well antibody solution (anti-phospho-histone H3 clone 3H10, FITC; Millipore, Cat #16-222; 1:1000 dilution) was added to cells, which were incubated for 2 h at room temperature. Afterwards, cells were washed with PBS and 5 μl/well solution of HOECHST 33342 dye (5 μg/ml) was added to cells and cells were incubated 15 min at room temperature in the dark. Cells were washed twice with PBS then covered with PBS and stored at 4° C. until analysis. Images were acquired with a PERKIN ELMER OPERA™ High-Content Analysis reader. Images were analyzed with image analysis software MetaXpress™ from Molecular devices utilizing the Mitotic Index application module. In this assay both labels HOECHST 33342 and phosphorylated Histone H3 on serine 10 were measured. HOECHST 33342 labels the DNA and is used to count the cell number. The staining of phosphorylated Histone H3 on serine 10 determines the number of mitotic cells. […] Otherwise cells were arrested at G2/M phase of the cell cycle progression. The raw assay data were further analyzed by four-parametric hill equation using Genedata's Assay Analyzer and Condoseo software.
SMILES,IC50 (CDK2/CycE) [µM],IC50 [1] [µM]
"CCc1ccnc(Nc2snc(C)c2C(=O)Nc2ccccc2CC)n1 [Example 17, N-(2-Ethylphenyl)-5-[(4-ethylpyrimidin-2-yl)amino]-3-methyl-1,2-thiazole-4-carboxamide]",> 20,19
"CCc1ccccc1NC(=O)c1c(C)nsc1Nc1cnc2ccccc2n1 [Example 19, N-(2-Ethylphenyl)-3-methyl-5-(quinoxalin-2-ylamino)-1,2-thiazole-4-carboxamide]",> 20,0.14
"CCc1ccccc1NC(=O)c1c(C)nsc1Nc1ncnc2sccc12 [Example 12, N-(2-Ethylphenyl)-3-methyl-5-(thieno[2,3-d]pyrimidin-4-ylamino)-1,2-thiazole-4-carboxamide]",> 20,6.9
"CCc1ccccc1NC(=O)c1c(C)nsc1Nc1cc(-n2ccnc2)ncn1 [Example 9, N-(2-Ethylphenyl)-5-{[6-(1H-imidazol-1-yl)pyrimidin-4-yl]amino}-3-methyl-1,2-thiazole-4-carboxamide]",> 20,3
"CCc1ccccc1NC(=O)c1c(C)nsc1Nc1ncnc2ccsc12 [Example 13, N-(2-Ethylphenyl)-3-methyl-5-(thieno[3,2-d]pyrimidin-4-ylamino)-1,2-thiazole-4-carboxamide]",> 20,2.1
"COC(=O)c1cnc(Nc2snc(C)c2C(=O)Nc2ccc(OC)nc2)cn1 [Example 32, Methyl 5-({4-[(6-methoxypyridin-3-yl)carbamoyl]-3-methyl-1,2-thiazol-5-yl}amino)-pyrazine-2-carboxylate]",> 20,1.2
"CCc1ccccc1NC(=O)c1c(C)nsc1Nc1ccc(C#N)cn1 [Example 7, 5-[(5-Cyanopyridin-2-yl)amino]-N-(2-ethylphenyl)-3-methyl-1,2-thiazole-4-carboxamide]",> 20,2.5
"COC(=O)c1ccc(Nc2snc(C)c2C(=O)Nc2ccc(OC)nc2)nc1 [Example 31, Methyl 6-({4-[(6-methoxypyridin-3-yl)carbamoyl]-3-methyl-1,2-thiazol-5-yl}amino)-nicotinate]",> 20,> 20
"COc1ccc(NC(=O)c2c(C)nsc2Nc2cc(C#N)ccn2)cn1 [Example 25, 5-[(4-Cyanopyridin-2-yl)amino]-N-(6-methoxypyridin-3-yl)-3-methyl-1,2-thiazole-4-carboxamide]",> 20,1.2

# Further lines, results first:
IC50 (CDK2/CycE) [µM],IC50 [1] [µM],SMILES
> 20,0.063,"COc1ccc(NC(=O)c2c(C)nsc2Nc2nc3c(C(F)(F)F)cccc3s2)cc1F [Example 47, N-(3-Fluoro-4-methoxyphenyl)-3-methyl-5-{[4-(trifluoromethyl)-1,3-benzothiazol-2-yl]amino}-1,2-thiazole-4-carboxamide]"
> 20,0.75,"COc1ncc(NC(=O)c2c(C)nsc2Nc2cnc3ccccc3n2)cc1C [Example 121, N-(6-Methoxy-5-methylpyridin-3-yl)-3-methyl-5-(quinoxalin-2-ylamino)-1,2-thiazole-4-carboxamide]"
> 20,0.26,"COc1ccc(NC(=O)c2c(C)nsc2Nc2cnc3cccc(C)c3n2)cn1 [Example 22, N-(6-methoxypyridin-3-yl)-3-methyl-5-[(8-methylquinoxalin-2-yl)amino]-1,2-thiazole-4-carboxamide]"
> 20,20,"Cc1nsc(Nc2cncc(N(C)C)n2)c1C(=O)Nc1ccc(F)c(F)c1 [Example 105, N-(3,4-Difluorophenyl)-5-{[6-(dimethylamino)pyrazin-2-yl]amino}-3-methyl-1,2-thiazole-4-carboxamide]"
> 20,0.49,"COc1ccc(NC(=O)c2c(C)nsc2Nc2cnc3ccc(F)cc3n2)cn1 [Example 44, 5-[(7-Fluoroquinoxalin-2-yl)amino]-N-(6-methoxypyridin-3-yl)-3-methyl-1,2-thiazole-4-carboxamide]"
> 20,0.46,"CCOC(=O)c1cnn2ccc(Nc3snc(C)c3C(=O)Nc3ccc(F)c(F)c3)nc12 [Example 55, Ethyl 5-({4-[(3,4-difluorophenyl)carbamoyl]-3-methyl-1,2-thiazol-5-yl}amino)-pyrazolo[1,5-a]pyrimidine-3-carboxylate]"
> 20,0.034,"Cc1nsc(Nc2cnc3cc(F)ccc3n2)c1C(=O)Nc1ccc(F)c(F)c1 [Example 46, N-(3,4-Difluorophenyl)-5-[(6-fluoroquinoxalin-2-yl)amino]-3-methyl-1,2-thiazole-4-carboxamide]"
> 20,0.25,"Cc1nsc(Nc2cnccn2)c1C(=O)Nc1ccc(Cl)c(F)c1 [Example 56, N-(4-Chloro-3-fluorophenyl)-3-methyl-5-(pyrazin-2-ylamino)-1,2-thiazole-4-carboxamide]"
> 20,0.32,"CCOC(=O)c1sc(Nc2snc(C)c2C(=O)Nc2ccc(OC)nc2)nc1C [Example 30, Ethyl 2-({4-[(6-methoxypyridin-3-yl)carbamoyl]-3-methyl-1,2-thiazol-5-yl}amino)-4-methyl-1,3-thiazole-5-carboxylate]"
> 20,0.96,"Cc1nsc(Nc2ncc(C(=O)N(C)C)s2)c1C(=O)Nc1ccc(F)c(F)c1 [Example 49, N-(3,4-Difluorophenyl)-5-{[5-(dimethylcarbamoyl)-1,3-thiazol-2-yl]amino}-3-methyl-1,2-thiazole-4-carboxamide]"
